A melting point compilation (Tetko et al.; mined from patent text by program, amines drawn as free bases though some values may be those of a salt)

| SMILES | melting point [°C] |
| --- | --- |
| Nc1ccc(Nc2c(NCc3ccccc3)cc(C(=O)O)cc2S(N)(=O)=O)cc1 | 244 |
| COC(=O)c1ccccc1S(=O)(=O)NC(=O)Nc1nc(C)c(C)c(C)n1 | 152 to 161 |
| CCN(CC)c1ccc(C=CC(=O)C=Cc2ccc(N(CC)CC)cc2)cc1 | 168 |
| CCOC(=O)CCc1cc(S(C)(=O)=O)cc(-c2nc(=O)c3ccc(Cl)cc3s2)n1 | 240 |
| Oc1nc2ncnn2c(O)c1-c1c(F)cc(F)cc1F | 200 to 201 |
| O=C(NCCO)c1cccc(-c2cccn3c(=O)n(Cc4cccc(C(F)(F)F)c4)nc23)c1 | 148 to 150 |
| COc1cc(C=CC(=O)c2c(OCC=C(C)C)ccc3c(=O)c4ccccc4oc23)cc(OC)c1OC | 153 to 155 |
| CC(C)c1cccc(C(C)C)c1NC(=O)Nc1nc(-c2ccccc2)ns1 | 180 to 183 |
| O=C(Nc1cccc(-c2ccccc2)c1)Nc1ccccc1CCO | 196 to 198 |
| COc1ccc(C(O)CN(Cc2ccccc2)Cc2ccccc2)cc1C(N)=O (stereo not drawn) | 120 to 123 |
| CCOC(=O)CCCOc1ccc(CC(C)(C)N)cc1 | 103 to 105 |
| FC(F)(F)c1cccc(Nc2nccc(-c3ccncc3)n2)c1 | 197 to 198 |
| COc1ccc(-c2nc(NC(=O)c3ccccc3)sc2-c2ccnc(NC(=O)c3ccccc3)c2)cc1 | 230 to 233 |
| CCc1ccc2oc(C(=O)Nc3ccc(-c4ccc(S(=O)(=O)NC(C(=O)O)C(C)C)cc4)cc3)c(C)c2c1OC(C)C (stereo not drawn) | 159 to 162 |
| NC(=O)C[C@H](NC(=O)c1ccccn1)C(=O)O | 171 to 172 |
| COC(=O)c1ccc(OCC(=O)NN=C2C(=O)Nc3ccc(I)cc32)cc1 | 288 |

Second part, the compound after the results:

| melting point [°C] | SMILES |
| --- | --- |
| 147 to 148 | COC(=O)c1cc(C(O)(C(F)(F)F)C(F)(F)F)ccc1NS(C)(=O)=O |
| 195 to 198 | CCOc1ccc([N+](=O)[O-])cc1NC(C)=O |
| 61 to 63 | CC1CCCc2cc([N+](=O)[O-])cnc21 (stereo not drawn) |
| 118 | OC(=S)Cc1cc(Cl)ccc1Cl |
| 119 to 120 | CCCc1nn(-c2ccc(C(F)(F)F)cn2)cc1CCCOc1nn(C)cc1CC(=O)O |
| 215 to 217 | CCc1nnc2c(NC3CCC3)nc3ccccc3n12 |
| 79 to 83 | CCC[C@H]1CN(c2c(F)cc3c(=O)c(C(=O)O)cn([C@@H]4C[C@@H]4F)c3c2OC)C[C@H]1N |
| 122 | N=C(N)NC(=O)C[C@H]1c2cc(C(F)(F)F)ccc2C(=O)N1CC(F)(F)F |
| 33 to 34 | COC(=O)C(C)Nc1c(C)csc1C (stereo not drawn) |
| 85 to 87 | CN1CC(CN)c2c[nH]c3cccc(c23)C1=O (stereo not drawn) |
| 121 to 127 | CC(C)(C)OC(=O)c1cnc(NC(=O)[C@H](CC2CCCC2)c2ccc(S(C)(=O)=O)c(Cl)c2)cn1 |
| 116 | Cc1c(Br)nc2n1CCc1ccccc1C2=C1CCN(C)CC1 |
| 117 to 118 | O=C(c1cc2cc(OCCNC[C@H](O)COc3ccccc3)ccc2o1)N1CCCC1 |
| > 300 | CC1=CC(C)=Nc2c(ccc3nc(O)c(O)nc23)N1 |
| 339 to 343 | COc1ccc(C=C2SC(N3CCOCC3)=NC2=O)cc1-c1ccc(O)c(C23CC4CC(CC(C4)C2)C3)c1 |
| 182 to 183 | Cc1c(C(=O)Nc2ccc(Oc3ccccc3)c(C#N)c2)cnn1-c1ccc(F)cc1 |
| 143 to 144 | O=C(NCC12CC3CC(CC(C3)C1)C2)c1cc(F)ccc1Br |
| 176 to 181 | O=C(O)c1cccc(-c2ccc3c(c2)C(Oc2ccc(Cl)cc2Cl)CCC3)c1 (stereo not drawn) |
| 132 to 134 | O=C(C=Cc1cccnc1)NCCCCC1CCN(C(=O)N(c2ccccc2)c2ccccc2)CC1 |
| 194 | c1ccc2c(c1)C[C@H]1CSC(=Nc3cccc4ncccc34)N1C2 |
| 147 to 150 | Cc1cc([N+](=O)[O-])ccc1N1CCOCC1 |
| 204 | CC(C)n1cc(-c2nc(C#N)c(N)nc2-c2ccccc2)ccc1=O |
